Assays:
Assay type in all cases: cell-based
NFκB = NFκB agonist assay in A549 SPAP cells; details: Homo sapiens; for Emax: A549, A549 SPAP cells, >85% = full agonist, ≧20% = partial or full agonist, read-out: average maximum asymptote in the NFkB assay; for IC50: A549 SPAP cells, TNFα 3.2 ng/ml, read-out: pIC50 for the NFkB assay (converted);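 on average maximum asymptote in the NFkB assay: maximum inhibition of the TNFα-induced NFκB-driven signal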
In short: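 A549 cells stably carrying an ELAM/NFκB-driven SPAP reporter were pre-incubated 1 h at 37° C with compound, then stimulated with TNFα (3.2 ng/ml final) for 15 h. SPAP activity read colorimetrically with pNPP at 405 nm after ~1 h; pIC50 estimated from dose-response curves.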

MMTV promoter = assay: MMTV agonist assay in A549 MMTV cells; details: Homo sapiens, A549, 6 h, >85% = full agonist, >20% and <85% = partial or efficacy selective agonist, read-out: average maximum asymptote in the MMTV agonist assay
In short: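 A549 cells stably carrying an MMTV promoter-driven renilla luciferase reporter were exposed to compound for 6 h at 37 °C in DMEM with 10% FCS and 25 mM HEPES. Luminescence read after renilla substrate addition; pEC50 and maximum asymptote estimated from dose-response curves.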

progesterone receptor = target: T1, progesterone receptor (Homo sapiens, UniProt P06401); assay: Assay for progesterone receptor activity (CV-1 cells, PRb-BacMam/MMTV-BacMam); details: CV-1 cells transduced with PRb-BacMam and MMTV-BacMam; read-out: pEC50 progesterone receptor activity (converted)
T1 construct: expressed in transfected cells; host or cells: CV-1 cells transduced with PRb-BacMam and MMTV-BacMam
T1 sequence (P06401 1-933): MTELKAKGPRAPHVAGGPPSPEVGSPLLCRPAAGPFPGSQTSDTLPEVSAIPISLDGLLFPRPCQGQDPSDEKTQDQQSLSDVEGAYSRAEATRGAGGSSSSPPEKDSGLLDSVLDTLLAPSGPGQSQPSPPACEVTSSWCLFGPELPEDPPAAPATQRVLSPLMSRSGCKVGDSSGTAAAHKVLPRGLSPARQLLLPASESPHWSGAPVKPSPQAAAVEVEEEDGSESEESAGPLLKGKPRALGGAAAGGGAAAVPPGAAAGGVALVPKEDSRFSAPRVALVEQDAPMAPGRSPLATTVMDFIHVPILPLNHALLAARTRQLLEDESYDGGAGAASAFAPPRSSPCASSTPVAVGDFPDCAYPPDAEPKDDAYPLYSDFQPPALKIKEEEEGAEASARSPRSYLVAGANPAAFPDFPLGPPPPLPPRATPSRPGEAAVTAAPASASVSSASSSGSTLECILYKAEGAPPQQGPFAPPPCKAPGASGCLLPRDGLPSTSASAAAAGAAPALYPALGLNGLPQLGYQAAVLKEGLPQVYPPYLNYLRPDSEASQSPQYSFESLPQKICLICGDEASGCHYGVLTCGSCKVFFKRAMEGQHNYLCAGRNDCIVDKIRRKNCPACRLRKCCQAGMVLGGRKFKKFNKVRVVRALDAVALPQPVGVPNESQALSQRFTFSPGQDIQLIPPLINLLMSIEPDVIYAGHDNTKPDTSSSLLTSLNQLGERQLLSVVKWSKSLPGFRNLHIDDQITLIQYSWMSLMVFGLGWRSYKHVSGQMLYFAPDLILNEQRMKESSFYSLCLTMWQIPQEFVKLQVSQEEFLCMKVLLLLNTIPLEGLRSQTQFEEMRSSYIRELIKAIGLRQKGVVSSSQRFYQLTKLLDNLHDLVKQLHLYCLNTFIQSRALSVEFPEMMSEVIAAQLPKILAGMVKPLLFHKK
In short: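 CV-1 cells co-transduced with PRb-BacMam and MMTV-BacMam (10% each), seeded onto compounds in DMEM with 10% serum. After 24 h, luminescence was read with Steadylite. pEC50 values were estimated from dose-response curves.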

SMILES: Nc1c(C(=O)NCC(O)(CNC(=O)c2c(Cl)cccc2C(F)(F)F)C(F)(F)F)cnn1-c1ccc(F)cc1 (single isomer, unassigned) [Example 44 Enantiomer 1, 5-Amino-N-{2-[({[2-chloro-6-(trifluoromethyl)phenyl]carbonyl}amino)methyl]-3,3,3-trifluoro-2-hydroxypropyl}-1-(4-fluorophenyl)-1H-pyrazole-4-carboxamide]
- Emax (NFκB): ≥ 20%
- IC50 (NFκB): < 1 µM
- Emax (MMTV promoter): 20 to 85%
- EC50 (progesterone receptor): > 1 µM

SMILES: Nc1c(C(=O)NCC(O)(CNC(=O)c2c(Br)cccc2C(F)(F)F)C(F)(F)F)cnn1-c1ccc(F)cc1 (single isomer, unassigned) [Example 45 Enantiomer 1, 5-Amino-N-{2-[({[2-bromo-6-(trifluoromethyl)phenyl]carbonyl}amino)methyl]-3,3,3-trifluoro-2-hydroxypropyl}-1-(4-fluorophenyl)-1H-pyrazole-4-carboxamide]
- Emax (NFκB): ≥ 20%
- IC50 (NFκB): < 1 µM
- Emax (MMTV promoter): 20 to 85%
- EC50 (progesterone receptor): > 1 µM

SMILES: Nc1c(C(=O)NCC(O)(CNC(=O)c2c(F)cccc2OC(F)F)C(F)(F)F)cnn1-c1ccc(F)cc1 (single isomer, unassigned) [Example 48 Enantiomer 1, 5-Amino-N-(2-{[({2-[(difluoromethyl)oxy]-6-fluorophenyl}carbonyl)amino]methyl}-3,3,3-trifluoro-2-hydroxypropyl)-1-(4-fluorophenyl)-1H-pyrazole-4-carboxamide]
- Emax (NFκB): ≥ 20%
- IC50 (NFκB): < 1 µM
- Emax (MMTV promoter): 20 to 85%
- EC50 (progesterone receptor): > 1 µM

— patent US8247377B2, “Non-steroidal glucocorticoid inhibitors and their use in treating inflammation, allergy and auto-immune conditions” (Glaxo Group Limited, priority 2006, dated 2012)
